Measured values published in ChEMBL document CHEMBL3407446, “Effect of new hybrids based on 5,16-pregnadiene scaffold linked to an anti-inflammatory drug on the growth of a human astrocytoma cell line (U373)” (Eur J Med Chem, 2015).
The source made the active and inactive calls. No cut-off for these calls is given here.

Columns and labels:
U-373MG ATCC [1] = assay: Antiproliferative activity against human U373MG cells assessed reduction in cell number at 1 nM and 5 uM incubated for 1 to 6 days by trypan blue dye exclusion dye based inverted microscopy; assay type: functional
[2] = Antiproliferative activity against human U373MG cells assessed reduction in cell number at 10 uM incubated for 6 days by trypan blue dye exclusion dye based inverted microscopy; assay type: functional, U-373MG ATCC; details: U373 MG, 144 h
U-373MG ATCC [3] = assay: Antiproliferative activity against human U373MG cells assessed as effect on cell number at 1 nM to 10 uM incubated for 1 to 6 days by trypan blue dye exclusion dye based inverted microscopy; assay type: functional
U-373MG ATCC [4] = assay: Antiproliferative activity against human U373MG cells assessed reduction in cell number at 10 uM incubated for 1 to 6 days by trypan blue dye exclusion dye based inverted microscopy; assay type: functional
U-373MG ATCC [5] = assay: Antiproliferative activity against human U373MG cells assessed reduction in cell number at 1 nM and 10 nM incubated for 1 to 6 days by trypan blue dye exclusion dye based inverted microscopy; assay type: functional
U-373MG ATCC [6] = assay: Induction of cell proliferation of human U373MG cells at 1 nM and 10 nM incubated for 1 to 6 days by trypan blue dye exclusion dye based inverted microscopy; assay type: functional
U-373MG ATCC [7] = assay: Antiproliferative activity against human U373MG cells assessed reduction in cell number at 1 nM and 10 uM incubated for 1 to 6 days by trypan blue dye exclusion dye based inverted microscopy; assay type: functional

## CC(=O)C1=CC[C@H]2[C@@H]3CC(=O)C4=C[C@@H](O)CC[C@]4(C)[C@H]3CC[C@]12C
U-373MG ATCC [1]
  Activity: Active
[2]
  IC50: 3.02 µM

## COc1ccc2cc([C@H](C)C(=O)O)ccc2c1
U-373MG ATCC [3]
  Activity: inactive

## COc1ccc2c(c1)c(CC(=O)O)c(C)n2C(=O)c1ccc(Cl)cc1
U-373MG ATCC [3]
  Activity: inactive

## CC(=O)C1=CC[C@H]2[C@@H]3CC(=O)C4=C[C@@H](OC(=O)[C@H](C)c5cccc(C(=O)c6ccccc6)c5)CC[C@]4(C)[C@H]3CC[C@]12C
U-373MG ATCC [3]
  Activity: inactive

## CC(=O)C1=CC[C@H]2[C@@H]3CC(=O)C4=C[C@@H](OC(=O)[C@H](C)c5ccc(CC(C)C)cc5)CC[C@]4(C)[C@H]3CC[C@]12C
U-373MG ATCC [4]
  Activity: Active
U-373MG ATCC [3]
  Activity: Active

## CC(C)Cc1ccc(C(C)C(=O)O)cc1 (stereo not drawn)
U-373MG ATCC [3]
  Activity: inactive

## CC(C(=O)O)c1cccc(C(=O)c2ccccc2)c1 (stereo not drawn)
U-373MG ATCC [3]
  Activity: inactive

## COc1ccc2c(c1)c(CC(=O)O[C@@H]1C=C3C(=O)C[C@@H]4[C@H](CC[C@]5(C)C(C(C)=O)=CC[C@@H]45)[C@@]3(C)CC1)c(C)n2C(=O)c1ccc(Cl)cc1
U-373MG ATCC [4]
  Activity: Active
U-373MG ATCC [3]
  Activity: Active
[2]
  IC50: 0.016 µM

## CC1=C(CC(=O)O)c2cc(F)ccc2/C1=C\c1ccc([S+](C)[O-])cc1 (stereo not drawn)
U-373MG ATCC [3]
  Activity: Active
U-373MG ATCC [5]
  Activity: Active

## COc1ccc2cc([C@@H](C)C(=O)O[C@@H]3C=C4C(=O)C[C@@H]5[C@H](CC[C@]6(C)C(C(C)=O)=CC[C@@H]56)[C@@]4(C)CC3)ccc2c1
U-373MG ATCC [6]
  Activity: Active
U-373MG ATCC [3]
  Activity: Active
[2]
  IC50: 17.7 µM
U-373MG ATCC [7]
  Activity: Active
